# Experimental data published in patent US11452718B2 (AVALYN PHARMA INC., priority 2012, dated 2022).
# Values joined by “and” are separate entries in the source; they are usually repeats but may differ in a detail not shown here. Equal values may be shown once. “Also recorded” adds a separate entry of the source. Read-outs that look alike come from different tables or passages of the source.
# Experiments:
# [1] = system: CYP2C9, 2C19, 2D6, and 2E1; details: hepatic microsomes; cited from earlier work
# [2] = cited from earlier work; for oral Cmax / Cmax: IPF patients; for Cmax: read-out: oral Cmax
# [3] = Stability assessment of pirfenidone formulations at 25° C./60RH and 40° C./75RH; type: physicochemical; details: for Measured Pirfenidone / mOsmol/kg / pH: time zero
# Experimental: The sample was agitated until completely dissolved. Once dissolved, samples were filtered via syringe through a 0.22 μm PVDF filter.
# Samples were refrigerated to reduce evaporative loss of volatile co-solvents (ethanol) during filtration and dispensing. An approximate 5.0-mL aliquot of each formulation was transferred to class A glass 6 ml containers with suitable closures (20 mm stopper). At least 8 containers are being maintained in the upright orientation at 25° C./60RH, and another 8 containers maintained at 40° C./75RH.
# [4] = Rubino et al., cited from earlier work
# [5] = Co-solvent and surfactant effects on pirfenidone solubility; type: physicochemical
# Experimental: Each sample was agitated at ambient temperature overnight. The samples were visually inspected and appearance recorded. Samples were centrifuged to sediment any un-dissolved material and the supernatant withdrawn via syringe through a 0.22 μm PVDF filter. […] The remaining filtered sample was split into three equal volumes in glass vials and placed at 25° C./60RH, 40° C./75RH and refrigeration. Samples are wrapped in aluminum foil to reduce light exposure. After the first night of incubation, samples are briefly visually inspected for any signs of discoloration or precipitate formation.
# [6] = Modeled human inhaled aerosol pirfenidone pharmacokinetics (FIG. 2, FIG. 5, Table 28)
# Experimental: Aerosol deliver parameters for the FIGS. 2 and 5 models were based on high-efficiency, mesh-based nebulizer characterization (Table 12). […] Respirable delivered dose (RDD) calculated by the product of fine particle fraction (FPF, %<5 microns) and inhaled mass. […] This later dose was modeled to be delivered in 1 minute.
# [7] = system: proliferation of fibroblasts; LPS-stimulated release of PDGF, TNF-alpha and TGF-beta1; collagen synthesis; details: depending on the assay conditions; cited from earlier work
# [8] = Pharmacokinetics and tissue distribution (lung, plasma, heart, kidney) of co-solvent formulations, bolus intratracheal aerosol; type: in vivo, Sprague-Dawley rats; details: for concentration at 4 min / concentration at 0.1 h / concentration at 0.167 h / concentration at 0.333 h: Sprague-Dawley, rat, lung, other: intratracheal bolus aerosol (nebulizing catheter), 4 mg/kg, about 4 mg/kg pirfenidone IT bolus aerosol, read-out: Analyte in lung tissue, Mean; for concentration at 4 min: 0.0667 hr
# Experimental: Selected formulations were prepared for pharmacokinetic analysis following aerosol delivery to rat lung. […] Formulations prepared for this study are outlined in Table 9. […] The sample was agitated until completely dissolved. […] Filtered samples were analyzed by HPLC.
# [9] = 25° C./60% RH, 5 mM phosphate buffer pH 6.5 plus 1% (v/v) EtOH, 2% (v/v) PG, target pirfenidone 1 mg/mL
# [10] = 25° C./60% RH, 5 mM phosphate buffer pH 6.5 plus 1% (v/v) EtOH, 2% (v/v) PG, target pirfenidone 15 mg/mL
# [11] = 25° C./60% RH, 5 mM phosphate buffer pH 6.5 plus 4% (v/v) EtOH, 8% (v/v) PG, target pirfenidone 23 mg/mL
# [12] = 25° C./60% RH, 5 mM phosphate buffer pH 6.5 plus 6% (v/v) EtOH, 12% (v/v) PG, target pirfenidone 30 mg/mL
# [13] = 25° C./60% RH, 5 mM phosphate buffer pH 6.5 plus 8% (v/v) EtOH, 16% (v/v) PG, target pirfenidone 1 mg/mL
# [14] = 25° C./60% RH, 5 mM phosphate buffer pH 6.5 plus 8% (v/v) EtOH, 16% (v/v) PG, target pirfenidone 38 mg/mL
# [15] = 40° C./75% RH, 5 mM phosphate buffer pH 6.5 plus 1% (v/v) EtOH, 2% (v/v) PG, target pirfenidone 1 mg/mL
# [16] = 40° C./75% RH, 5 mM phosphate buffer pH 6.5 plus 1% (v/v) EtOH, 2% (v/v) PG, target pirfenidone 15 mg/mL
# [17] = 40° C./75% RH, 5 mM phosphate buffer pH 6.5 plus 4% (v/v) EtOH, 8% (v/v) PG, target pirfenidone 23 mg/mL
# [18] = 40° C./75% RH, 5 mM phosphate buffer pH 6.5 plus 6% (v/v) EtOH, 12% (v/v) PG, target pirfenidone 30 mg/mL
# [19] = 40° C./75% RH, 5 mM phosphate buffer pH 6.5 plus 8% (v/v) EtOH, 16% (v/v) PG, target pirfenidone 1 mg/mL
# [20] = 40° C./75% RH, 5 mM phosphate buffer pH 6.5 plus 8% (v/v) EtOH, 16% (v/v) PG, target pirfenidone 38 mg/mL
# [21] = 5 mM phosphate buffer pH 6.5 plus 1% (v/v) EtOH, 2% (v/v) PG, target pirfenidone 1 mg/mL
# [22] = 5 mM phosphate buffer pH 6.5 plus 1% (v/v) EtOH, 2% (v/v) PG, target pirfenidone 15 mg/mL
# [23] = 5 mM phosphate buffer pH 6.5 plus 4% (v/v) EtOH, 8% (v/v) PG, target pirfenidone 23 mg/mL
# [24] = 5 mM phosphate buffer pH 6.5 plus 6% (v/v) EtOH, 12% (v/v) PG, target pirfenidone 30 mg/mL
# [25] = 5 mM phosphate buffer pH 6.5 plus 8% (v/v) EtOH, 16% (v/v) PG, target pirfenidone 1 mg/mL
# [26] = 5 mM phosphate buffer pH 6.5 plus 8% (v/v) EtOH, 16% (v/v) PG, target pirfenidone 38 mg/mL
compound,measurement,setting,value
"Cc1ccc(=O)n(-c2ccccc2)c1 [pirfenidone, 5-methyl-1-phenyl-2-(1H)-pyridone]",contribution of each isoenzyme to metabolism,[1],less than 13%
same,duration of plasma level at or greater than 5 mcg/mL,[2]; 801 mg oral pirfenidone,4 h
same,oral Cmax,[2]; fasting-state,about 15.7 mcg/mL
same,Cmax,[2]; fasting-state,~84 µM
same,oral Cmax,[2]; recommended fed-state,about 7.9 mcg/mL
same,Cmax,[2]; recommended fed-state,~42 µM
same,change in Tmax by food,"[2]; oral, fed-state",seven-fold increase
same,reduction in Cmax by food,"[2]; oral, fed-state",~50%
same,reduction in overall exposure (AUC) by food,"[2]; oral, fed-state",10-15% and ~20%
same,Pirfenidone (mg/mL) at Time = 0,[3]; [9],1.0 mg/mL
same,Pirfenidone (mg/mL) at Time = 1 month,[3]; [9],1.0 mg/mL
same,Pirfenidone (mg/mL) at Time = 3 month,[3]; [9],1.0 mg/mL
same,Pirfenidone (mg/mL) at Time = 6 month,[3]; [9],1.0 mg/mL
same,Pirfenidone (mg/mL) at Time = 0,[3]; [10],16.1 mg/mL
same,Pirfenidone (mg/mL) at Time = 1 month,[3]; [10],15.1 mg/mL
same,Pirfenidone (mg/mL) at Time = 3 month,[3]; [10],14.9 mg/mL
same,Pirfenidone (mg/mL) at Time = 6 month,[3]; [10],15.4 mg/mL
same,Pirfenidone (mg/mL) at Time = 0,[3]; [11],24.1 mg/mL
same,Pirfenidone (mg/mL) at Time = 1 month,[3]; [11],22.1 mg/mL
same,Pirfenidone (mg/mL) at Time = 3 month,[3]; [11],22.3 mg/mL
same,Pirfenidone (mg/mL) at Time = 6 month,[3]; [11],23.2 mg/mL
same,Pirfenidone (mg/mL) at Time = 0,[3]; [12],30.3 mg/mL
same,Pirfenidone (mg/mL) at Time = 1 month,[3]; [12],30.1 mg/mL
same,Pirfenidone (mg/mL) at Time = 3 month,[3]; [12],29.6 mg/mL
same,Pirfenidone (mg/mL) at Time = 6 month,[3]; [12],31.0 mg/mL
same,Pirfenidone (mg/mL) at Time = 0,[3]; [13],1.0 mg/mL
same,Pirfenidone (mg/mL) at Time = 1 month,[3]; [13],1.0 mg/mL
same,Pirfenidone (mg/mL) at Time = 3 month,[3]; [13],1.0 mg/mL
same,Pirfenidone (mg/mL) at Time = 6 month,[3]; [13],1.0 mg/mL
same,Pirfenidone (mg/mL) at Time = 0,[3]; [14],38.9 mg/mL
same,Pirfenidone (mg/mL) at Time = 1 month,[3]; [14],38.3 mg/mL
same,Pirfenidone (mg/mL) at Time = 3 month,[3]; [14],38.0 mg/mL
same,Pirfenidone (mg/mL) at Time = 6 month,[3]; [14],39.2 mg/mL
same,Pirfenidone (mg/mL) at Time = 0,[3]; [15],1.0 mg/mL
same,Pirfenidone (mg/mL) at Time = 1 month,[3]; [15],1.0 mg/mL
same,Pirfenidone (mg/mL) at Time = 3 month,[3]; [15],1.0 mg/mL
same,Pirfenidone (mg/mL) at Time = 6 month,[3]; [15],1.0 mg/mL
same,Pirfenidone (mg/mL) at Time = 0,[3]; [16],16.1 mg/mL
same,Pirfenidone (mg/mL) at Time = 1 month,[3]; [16],15.1 mg/mL
same,Pirfenidone (mg/mL) at Time = 3 month,[3]; [16],14.8 mg/mL
same,Pirfenidone (mg/mL) at Time = 6 month,[3]; [16],15.5 mg/mL
same,Pirfenidone (mg/mL) at Time = 0,[3]; [17],24.1 mg/mL
same,Pirfenidone (mg/mL) at Time = 1 month,[3]; [17],22.4 mg/mL
same,Pirfenidone (mg/mL) at Time = 3 month,[3]; [17],22.1 mg/mL
same,Pirfenidone (mg/mL) at Time = 6 month,[3]; [17],23.3 mg/mL
same,Pirfenidone (mg/mL) at Time = 0,[3]; [18],30.3 mg/mL
same,Pirfenidone (mg/mL) at Time = 1 month,[3]; [18],30.3 mg/mL
same,Pirfenidone (mg/mL) at Time = 3 month,[3]; [18],30.0 mg/mL
same,Pirfenidone (mg/mL) at Time = 6 month,[3]; [18],31.1 mg/mL
same,Pirfenidone (mg/mL) at Time = 0,[3]; [19],1.0 mg/mL
same,Pirfenidone (mg/mL) at Time = 1 month,[3]; [19],1.0 mg/mL
same,Pirfenidone (mg/mL) at Time = 3 month,[3]; [19],1.0 mg/mL
same,Pirfenidone (mg/mL) at Time = 6 month,[3]; [19],1.0 mg/mL
same,Pirfenidone (mg/mL) at Time = 0,[3]; [20],38.9 mg/mL
same,Pirfenidone (mg/mL) at Time = 1 month,[3]; [20],38.4 mg/mL
same,Pirfenidone (mg/mL) at Time = 3 month,[3]; [20],38.0 mg/mL
same,Pirfenidone (mg/mL) at Time = 6 month,[3]; [20],37.9 mg/mL
same,Measured Pirfenidone,[3]; [21],1.0 mg/mL
same,mOsmol/kg,[3]; [21],452 mOsmol/kg
same,pH,[3]; [21],6.69
same,Measured Pirfenidone,[3]; [22],16.1 mg/mL
same,mOsmol/kg,[3]; [22],512 mOsmol/kg
same,pH,[3]; [22],6.65
same,Measured Pirfenidone,[3]; [23],24.1 mg/mL
same,pH,[3]; [23],6.78
same,Measured Pirfenidone,[3]; [24],30.3 mg/mL
same,mOsmol/kg,[3]; [24],2863 mOsmol/kg
same,pH,[3]; [24],6.90
same,Measured Pirfenidone,[3]; [25],1.0 mg/mL
same,mOsmol/kg,[3]; [25],3590 mOsmol/kg
same,pH,[3]; [25],6.98
same,Measured Pirfenidone,[3]; [26],38.9 mg/mL
same,mOsmol/kg,[3]; [26],3750 mOsmol/kg
same,pH,[3]; [26],7.04
same,T1/2 beta,"[4]; lung tissue (derived solely from plasma T1/2), aerosol 47 mg RDD, 2009 fasted-state",2.5 h
same,T1/2 beta,"[4]; lung tissue (derived solely from plasma T1/2), oral 801 mg, fasted-state, 2009",2.5 h
same,T1/2 beta,"[4]; lung tissue (derived solely from plasma T1/2), oral 801 mg, fed-state, 2009",2.4 h
same,T1/2 beta,"[4]; plasma, aerosol 47 mg RDD, 2009 fasted-state",2.5 h
same,T1/2 beta,"[4]; plasma, oral 801 mg, fasted-state, 2009",2.5 h
same,T1/2 beta,"[4]; plasma, oral 801 mg, fed-state, 2009",2.4 h
same,Pirfenidone Saturation Solubility,"[5]; 4% EtOH, 0.1% CPB, 95.9% water, pH 4.9",20.2 mg/mL
same,effect of co-solvent on saturation solubility,[5]; ethanol (EtOH) or propylene glycol (PG),increase the saturation solubility
same,effect of co-solvents on saturation solubility,[5]; ethanol and propylene glycol together,additive effect in increasing the saturation solubility
same,lung tissue Cmax compared to the 801 mg oral pirfenidone dose,"[6]; 2.5 mg RDD inhaled over 1 minute, human model",equivalent
same,possible achieved human lung tissue Cmax,"[6]; 29 mg RDD, 3 minute tidal-inhaled nebulized dose",43.2 mcg/gram lung tissue
same,plasma AUC compared to the 801 mg oral pirfenidone dose,"[6]; 120 mg RDD inhaled over 5 minutes, human model",equivalent
same,lower end of concentrations at which in vitro activities were evident,[7],about 30 microM; also recorded: about 5.5 mcg/mL
same,upper end of concentrations at which in vitro activities were evident,[7],about 10 mM; also recorded: about 1.85 mg/mL
same,concentration at 4 min,[8]; Group 1,10400 ng/g
same,concentration at 0.1 h,[8]; Group 1,7530 ng/g
same,concentration at 0.167 h,[8]; Group 1,5360 ng/g
same,concentration at 0.333 h,[8]; Group 1,4150 ng/g
same,concentration at 4 min,[8]; Group 2,8530 ng/g
same,concentration at 0.1 h,[8]; Group 2,5980 ng/g
same,concentration at 0.167 h,[8]; Group 2,5710 ng/g
same,concentration at 0.333 h,[8]; Group 2,3790 ng/g
same,concentration at 4 min,[8]; Group 3,17300 ng/g
same,concentration at 0.1 h,[8]; Group 3,7340 ng/g
same,concentration at 0.167 h,[8]; Group 3,6160 ng/g
same,concentration at 4 min,[8]; Group 4,7770 ng/g
same,concentration at 0.1 h,[8]; Group 4,7500 ng/g
same,concentration at 0.167 h,[8]; Group 4,5230 ng/g
same,concentration at 4 min,[8]; Group 5,10700 ng/g
same,concentration at 0.1 h,[8]; Group 5,5830 ng/g
same,concentration at 0.167 h,[8]; Group 5,8780 ng/g
same,concentration at 4 min,[8]; Group 6,7930 ng/g
same,concentration at 0.1 h,[8]; Group 6,6830 ng/g
same,concentration at 0.167 h,[8]; Group 6,5170 ng/g
same,adverse events,"[8]; about 4 mg/kg intratracheal aerosol, co-solvent formulations",No adverse events were noted
